For orientation: IC50 means the concentration that gives 50% inhibition. The EC50 is the concentration needed to bring the measured effect to its halfway point. For orientation: AC50 means the midpoint of the concentration-response curve, whichever way the signal moves.

Each structure is given as a SMILES string. Activity calls are given as the source filed them. Rule as the data show it, for most assays here: actives have a measured EC50 and inactives only a lower limit.

The results in this text go back to ChEMBL document CHEMBL1201862, “PubChem BioAssay data set” (2004).

Assay [1] has as its target T1, Carboxy-terminal domain RNA polymerase II polypeptide A small phosphatase 1 (Homo sapiens, UniProt Q9GZU7).
T1 sequence (Q9GZU7 whole entry): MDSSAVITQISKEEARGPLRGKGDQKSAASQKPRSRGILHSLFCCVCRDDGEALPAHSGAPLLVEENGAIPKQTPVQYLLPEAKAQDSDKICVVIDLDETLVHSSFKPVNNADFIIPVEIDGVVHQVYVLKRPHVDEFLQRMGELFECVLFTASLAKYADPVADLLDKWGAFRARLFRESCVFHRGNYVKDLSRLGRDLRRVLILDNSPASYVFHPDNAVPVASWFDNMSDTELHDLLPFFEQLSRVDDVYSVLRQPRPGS
In words: inhibitors of CTDSP1, concentration-response testing, biochemical assay, absorbance-based, actives from ultra-high-throughput screening (AID 540297). Type of assay: functional.

Assay [2] is described as follows: cytotoxicity toward DRD oncogenic fibroblasts, dose response, cell-based, non-viral oncogenic, luminescence (AID 1934). Particulars: Homo sapiens. Type of assay: functional.
The subject of assay [3] is BJ. In words: cytotoxicity toward BJ-TERT fibroblasts, dose response, cell-based, RAS-independent, luminescence (AID 1933). Type of assay: functional. Particulars: Homo sapiens.
Assay [4] relates to BJ. Briefly: cytotoxicity toward BJ-TERT-LT-ST fibroblasts, dose response, cell-based, RAS-independent, luminescence (AID 1935).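 Also: BJ fibroblasts immortalized with TERT plus LT and ST oncogenes.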 It is filed as functional. Particulars: Homo sapiens.
For assay [5], the system named is BJ. Briefly: cells. Particulars: Homo sapiens. Type of assay: functional, cell-based.
Another assay has as its target T2, Protein skinhead-1 (Caenorhabditis elegans, UniProt P34707).
T2 sequence (P34707 whole entry): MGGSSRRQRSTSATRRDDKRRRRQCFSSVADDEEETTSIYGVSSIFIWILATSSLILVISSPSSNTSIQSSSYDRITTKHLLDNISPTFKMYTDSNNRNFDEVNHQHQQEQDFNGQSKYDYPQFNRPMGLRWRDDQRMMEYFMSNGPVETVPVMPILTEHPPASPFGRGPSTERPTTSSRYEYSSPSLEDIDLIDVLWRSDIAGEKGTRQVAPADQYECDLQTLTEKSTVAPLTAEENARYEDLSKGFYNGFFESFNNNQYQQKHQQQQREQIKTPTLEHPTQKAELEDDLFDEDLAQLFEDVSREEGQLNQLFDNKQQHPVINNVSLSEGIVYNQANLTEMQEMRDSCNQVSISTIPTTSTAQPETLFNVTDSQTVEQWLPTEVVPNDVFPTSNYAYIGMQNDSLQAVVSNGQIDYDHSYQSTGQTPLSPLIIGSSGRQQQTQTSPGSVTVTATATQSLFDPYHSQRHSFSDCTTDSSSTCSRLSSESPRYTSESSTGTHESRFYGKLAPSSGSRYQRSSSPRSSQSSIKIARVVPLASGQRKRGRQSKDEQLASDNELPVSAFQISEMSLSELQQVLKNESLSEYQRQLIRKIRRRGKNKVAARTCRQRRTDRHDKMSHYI
It is filed as functional.

Assay [6] addresses T3, Zinc finger protein mex-5 (Caenorhabditis elegans, UniProt Q9XUB2).
T3 sequence (Q9XUB2 whole entry): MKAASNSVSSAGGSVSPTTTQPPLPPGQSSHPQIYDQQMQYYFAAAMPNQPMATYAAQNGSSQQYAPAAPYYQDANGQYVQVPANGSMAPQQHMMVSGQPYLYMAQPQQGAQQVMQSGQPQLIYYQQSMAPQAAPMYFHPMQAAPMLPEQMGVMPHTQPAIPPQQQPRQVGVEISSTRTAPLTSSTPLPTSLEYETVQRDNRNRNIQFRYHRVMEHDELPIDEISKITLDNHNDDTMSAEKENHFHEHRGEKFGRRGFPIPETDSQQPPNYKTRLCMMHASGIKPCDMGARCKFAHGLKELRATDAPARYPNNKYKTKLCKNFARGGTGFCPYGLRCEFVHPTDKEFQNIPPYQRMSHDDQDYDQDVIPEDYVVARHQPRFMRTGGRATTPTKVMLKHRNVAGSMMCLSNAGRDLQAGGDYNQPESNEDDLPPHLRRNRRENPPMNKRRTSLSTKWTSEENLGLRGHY
In words: MEX-5/TCR-2 RNA interaction inhibitors, dose response, biochemical, C. elegans, fluorescence polarization (AID 1960). A general note: In fluorescence polarisation assays a small probe gives low polarisation when free and higher when bound to something large.

Assay [7] deals with T4, RNA-binding protein pos-1 (Caenorhabditis elegans, UniProt G5EF15).
T4 sequence (G5EF15 whole entry): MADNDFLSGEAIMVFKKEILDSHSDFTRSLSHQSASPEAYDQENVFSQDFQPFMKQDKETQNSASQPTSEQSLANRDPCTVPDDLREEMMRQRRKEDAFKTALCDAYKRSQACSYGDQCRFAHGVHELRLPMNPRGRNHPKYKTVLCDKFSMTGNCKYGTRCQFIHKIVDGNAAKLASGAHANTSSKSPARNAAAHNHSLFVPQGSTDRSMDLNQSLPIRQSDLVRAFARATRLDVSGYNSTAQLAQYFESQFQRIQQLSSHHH
Briefly: inhibitors of POS-1/mex-3 RNA binding, dose response, biochemical, fluorescence polarization (AID 1964).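 Also: purified POS-1 fused to maltose binding protein made in E. coli; potency of compounds blocking POS-1 binding to fluorescent RNA.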

A further assay deals with T5, Streptokinase A (Streptococcus pyogenes serotype M1, UniProt P10520).
T5 sequence (P10520 whole entry): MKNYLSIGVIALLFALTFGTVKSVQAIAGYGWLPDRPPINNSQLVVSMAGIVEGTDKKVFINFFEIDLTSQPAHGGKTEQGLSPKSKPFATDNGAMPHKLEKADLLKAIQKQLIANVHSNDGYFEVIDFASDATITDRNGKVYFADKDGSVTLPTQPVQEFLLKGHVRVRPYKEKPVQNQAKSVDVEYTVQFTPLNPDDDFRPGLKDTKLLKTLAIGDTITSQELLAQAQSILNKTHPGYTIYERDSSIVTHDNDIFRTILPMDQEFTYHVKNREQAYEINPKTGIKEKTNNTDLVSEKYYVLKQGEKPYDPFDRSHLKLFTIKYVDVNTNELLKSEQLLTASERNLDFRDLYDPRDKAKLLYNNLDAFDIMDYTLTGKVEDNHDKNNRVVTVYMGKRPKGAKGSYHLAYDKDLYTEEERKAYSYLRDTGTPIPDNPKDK
In words: S. pyogenes streptokinase expression inhibitors, potency, dose response, plasminogen activation absorbance, OD405 (AID 1914).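 Also: secreted streptokinase activity via plasminogen activation per viability signal from cell pellet.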 Type of assay: functional, Streptococcus pyogenes M1 GAS.

Assay [8] concerns Streptococcus sp. 'group A'. Briefly: growth inhibition of control SK(-) GAS strain, dose response, counter-screen for streptokinase expression inhibitor project, luminescence, kanamycin, BacTiterGlo, confirmation (AID 1900). Type of assay: functional, organism-based. (In general: A counterscreen serves to expose hits that act by an unwanted route or on another target.)
The subject of a further assay is Streptococcus. In words: Group A Streptococcus viability loss, dose response, counter-screen for streptokinase expression inhibitor project, luminescence, BacTiterGlo (AID 1915).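 Also: potency for reduction of bacterial viability or growth.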 It is filed as functional, organism-based.
The next assay concerns INS1. In words: beta cell apoptosis inhibitors, cytokine rescue, dose response, luminescence, retest (AID 449756).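 Also: cell death triggered by IL-1 beta plus TNF-alpha plus IFN-gamma mixture; protective hits raise ATP signal compared with cytokine alone wells.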 Particulars: Rattus norvegicus. It is filed as functional, cell-based.
In the next assay the target is Paired box protein Pax-8 (Homo sapiens, UniProt Q06710). In words: inhibitors of PAX8-driven TPO luciferase reporter, dose response, RMG-I cells, cherry-pick (AID 687027).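 Also: luciferase reporter driven by Pax8 target thyroperoxidase promoter measured by SteadyGlo luminescence.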 Type of assay: functional, cell-based. Background: A reporter such as luciferase makes a cellular process visible.
Chain of Paired box protein Pax-8 (Q06710 whole entry): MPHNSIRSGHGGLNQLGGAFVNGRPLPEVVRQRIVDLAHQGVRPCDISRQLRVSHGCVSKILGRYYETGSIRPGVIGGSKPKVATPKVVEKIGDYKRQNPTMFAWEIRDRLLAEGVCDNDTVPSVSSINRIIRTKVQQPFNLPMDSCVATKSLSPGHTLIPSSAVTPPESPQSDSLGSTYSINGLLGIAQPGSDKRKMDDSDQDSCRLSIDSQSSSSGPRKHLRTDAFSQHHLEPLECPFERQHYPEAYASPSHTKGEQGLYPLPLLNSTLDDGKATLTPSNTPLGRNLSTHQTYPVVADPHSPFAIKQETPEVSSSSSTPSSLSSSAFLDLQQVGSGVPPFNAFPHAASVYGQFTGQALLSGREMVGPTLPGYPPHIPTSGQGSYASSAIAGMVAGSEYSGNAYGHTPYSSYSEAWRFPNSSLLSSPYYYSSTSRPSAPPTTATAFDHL
The nature of assay [9]: Luminescence Cell-Based Dose Confirmation HTS to Identify Activators of 5'UTR Stem-Loop Driven Alpha-Synuclein mRNA Translation in H4 Neuroglioblastoma Cells. [Related pubchem assays: 1829 (Project Summary), 1814 (Primary HTS)]. Type of assay: functional.
Assay [10] is described as follows: Luminescence Cell-Based Dose Response HTS to Identify Activators of Luciferase Translation or Activity in H4 […] Cells. [Related pubchem assays: 1829 (Project Summary), 1814 (Primary HTS)]. Type of assay: functional.
A further assay deals with H4. Briefly: Luminescence Cell-Based Dose Response HTS to Identify Activators of 5'UTR Stem-Loop Driven Prion Protein mRNA Translation in H4 Neuroglioblastoma Cells. [Related pubchem assays: 1829 (Project Summary), 1814 (Primary HTS)]. Particulars: Homo sapiens. It is filed as functional.
Assay [11] can be described thus: inhibitors of intracellular T. cruzi replication, confirmation, NIH3T3 host cells, beta-gal luminescence (AID 2044).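 Also: intracellular parasites grown in NIH/3T3 mouse fibroblasts as host cells; luminescent beta-galactosidase reporter signal from transgenic T. cruzi replicating inside host cells; inhibitors lower the luminescence signal.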 It is filed as functional, cell-based.
The nature of assay [12]: cytotoxicity toward NIH3T3 fibroblasts, dose response, counter-screen, cell-based, ATP luminescence, mouse fibroblasts (AID 2010).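 Also: cells exposed to compound for about 90 hours before reading.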 It is filed as functional.

`CCOc1ccc(C(=O)Nc2ccc(NC(=O)c3ccccc3)c(C)c2)cc1[N+](=O)[O-]`: the IC50 in assay [1] was 5.03 µM (active).

Regarding `Cc1nc([N+](=O)[O-])c(Br)n1CC(=O)c1cccc([N+](=O)[O-])c1`, the EC50 is > 150 µM (not active) in assay [2], > 150 µM (not active) with BJ [3], > 150 µM (inconclusive) in the assay with BJ [4] and > 150 µM (not active) in the assay with BJ [5].

Regarding `O=C(O)c1ccc(Nc2ccc([N+](=O)[O-])c3nonc23)cc1`, the IC50 at Protein skinhead-1 is 48.5 µM (active).

With `COc1ccc(C2C(C#N)=C(N)OC3=C2C(=O)CCC3)c(OC)c1OC` (configuration not stated), the EC50 in assay [6] and in assay [7] was > 300 µM (not active) throughout.

Take `CCOc1ccc2nc(NC(=O)CN3CCC(n4nnc5cc(C(F)(F)F)ccc54)CC3)sc2c1`: the EC50 at Streptokinase A is > 150 µM (not active); in [8], 68.6 µM (active); in the assay with Streptococcus it was > 150 µM (not active). Moreover, the IC50 on Protein skinhead-1 is > 100 µM (inactive).

For `c1ccc(-c2cn3c(n2)-c2ccccc2C3)cc1`, the concentration for a half-maximal effect (EC50) is 11.6 µM (active) in assay [2], 14.9 µM (active) in the assay with BJ [3], > 150 µM (inconclusive) with BJ [4] and 14.3 µM (active) in the assay on BJ [5].

As for `O=C1c2ccccc2C(=O)N1Nc1ccc([N+](=O)[O-])cc1[N+](=O)[O-]`, the IC50 in [1] was 16.9 µM (active).

On to `Cc1ccc2[nH]c(/C(C#N)=C/c3ccc(-c4cccc([N+](=O)[O-])c4)o3)nc2c1`, for which the IC50 in [1] is 6.06 µM (active).

With `CC(C)(C)OC(=O)NCCCC1=CC2=CC(=O)C(C)(OC(=O)c3ccc(Cl)nc3)C(=O)C2=CO1` (configuration not stated), the results for the EC50 in assay [6] and in assay [7] were 20 µM (active) and 17.2 µM (active), respectively.

For the compound `Cc1ccc(Oc2nc(-c3ccccn3)nc3ccccc23)cc1`, the concentration for a half-maximal effect (EC50) in [6] was 6.96 µM (active); at Streptokinase A, > 150 µM (not active); in assay [8] it was 8.8 µM (active); in the assay on Streptococcus, > 150 µM (not active); in assay [7], > 300 µM (inconclusive). For the same compound, the half-maximal activity concentration (AC50) with INS1 is 1.78 µM (active).

On to `COc1cc2nc(C3CCC3)nc(N3CCN(c4ccccc4OC)CC3)c2cc1OC`, for which the AC50 at Paired box protein Pax-8 was 18.9 µM (active).

Regarding `Cn1ncc2c(NCCc3ccccc3)nc(Cl)nc21`, the IC50 at Protein skinhead-1 was > 100 µM (inactive).

For `O=C(O)CCc1ccc(-c2cccs2)n1-c1ccc(C(=O)O)cc1`, the 50% effective concentration (EC50) in [6] and in assay [7] was > 300 µM (not active) throughout.

As to `Cc1cc(C)c(NC(=O)COC(=O)C2CCN(c3ccc(C(F)(F)F)cn3)CC2)c(Cl)c1`, at Protein skinhead-1, the IC50 is > 100 µM (inactive).

`CCC1(C)Cc2ccccc2-c2nc(NCCO)n(-c3ccc(C)cc3)c(=O)c21` (configuration not stated): the 50% effective concentration (EC50) (in assay [9]; in assay [10]; with H4) was > 120 µM (not active) throughout. In addition, on Protein skinhead-1, the IC50 is > 100 µM (inactive).

`O=C(NCCF)C1Nc2ccc(OC(F)(F)F)cc2C2C=CCC12` (configuration not stated): the half-maximal effective concentration (EC50) in assay [6] and in [7] was > 300 µM (not active) each time.

Turning to `CC(C)(C)OC(=O)NCCCCC1=CC2=CC(=O)C(C)(OC(=O)c3cnc4ccccc4n3)C(=O)C2=CO1` (configuration not stated), the EC50 in [6] is 15 µM (active); in assay [7] it was 17.2 µM (active).

`Cc1ccc(NC(=S)NC(=O)C2CC2)c(C)c1`: on Protein skinhead-1, the IC50 was > 100 µM (inactive).

In the case of `N=c1c(S(=O)(=O)c2ccc(Cl)cc2)cc2c(=O)n3ccccc3nc2n1CCc1ccccc1`, the EC50 in assay [11] is 0.377 µM (active); in [6], 1.39 µM (active); in assay [12], > 60 µM (not active); in [7], > 300 µM (inconclusive).

Take `c1ccc(-c2ccc(-c3ccncn3)cc2)cc1`: at Protein skinhead-1, the IC50 was 15.2 µM (active).

For `Cc1ccc(NC(=O)CSCC(=O)Nc2ccccc2C(=O)N2CCCCC2)cc1`, the IC50 at Protein skinhead-1 is > 100 µM (inactive).

For the compound `C[C@H]1CCCCO[C@@H](CN(C)C(=O)NC2CCCCC2)[C@@H](C)CN([C@@H](C)CO)C(=O)c2cc(NC(=O)Nc3ccc(C(F)(F)F)cc3)ccc2O1`, the AC50 on Paired box protein Pax-8 was 2.54 µM (active).

Regarding `C=C1[C@@H](C)C2[C@H](Cc3ccccc3)NC(=O)[C@]23OC(=O)CC[C@H](O)CCC[C@H](C)C/C=C/[C@H]3[C@@H]1O` (some centres not stated), the concentration for a half-maximal effect (EC50) was 12.2 µM (inconclusive) in assay [2], 8.36 µM (inconclusive) with BJ [3], 17.2 µM (active) in the assay on BJ [4] and > 150 µM (not active) in the assay on BJ [5].

Regarding `CCOC(=O)N1CCN(C(=O)Nc2ccc(Cl)cc2)CC1`, on Protein skinhead-1, the IC50 is > 100 µM (inactive).
